# From the Kinase Knowledgebase extract (Sharma et al. 2016)
# Molecular target: MAPK14 (human) (UniProt Q16539)
# Experiment: Inhibition of MAPK14 Kinase Activity
# Sequence of MAPK14 (human) (Q16539 whole entry, looked up): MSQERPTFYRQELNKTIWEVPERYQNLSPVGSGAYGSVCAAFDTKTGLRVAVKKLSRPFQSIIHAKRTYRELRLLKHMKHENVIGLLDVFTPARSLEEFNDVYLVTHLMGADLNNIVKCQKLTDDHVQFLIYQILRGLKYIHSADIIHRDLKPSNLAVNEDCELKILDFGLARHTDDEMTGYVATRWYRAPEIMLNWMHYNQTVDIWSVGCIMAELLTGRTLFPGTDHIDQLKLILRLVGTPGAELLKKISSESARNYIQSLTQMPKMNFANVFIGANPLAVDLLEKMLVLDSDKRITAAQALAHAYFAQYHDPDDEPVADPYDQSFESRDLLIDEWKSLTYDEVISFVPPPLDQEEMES
row,IC50,SMILES
1,1 to 100 nM,C[C@H](O)Cn1c(=O)c(Oc2ccc(F)cc2F)cc2cnc(NC3CCN(S(C)(=O)=O)CC3)nc21
2,1 to 100 nM,CC[C@@H](C)Nc1ncc2cc(Oc3ccc(F)cc3F)c(=O)n(C[C@@H](C)O)c2n1
3,1 to 100 nM,C[C@@H](O)Cn1c(=O)c(Oc2ccc(F)cc2F)cc2cnc(NC3CCC3)nc21
4,1 to 100 nM,C[C@H](O)Cn1c(=O)c(Oc2ccc(F)cc2F)cc2cnc(NC3CCCC3)nc21
5,1 to 100 nM,CNc1ncc2cc(Oc3ccc(F)cc3F)c(=O)n(C[C@@H](C)O)c2n1
6,1 to 100 nM,C[C@@H](O)CNc1ncc2cc(Oc3ccc(F)cc3F)c(=O)n(C[C@@H](C)O)c2n1
7,1 to 100 nM,C[C@H](O)Cn1c(=O)c(Oc2ccc(F)cc2F)cc2cnc(NC3CCOCC3)nc21
8,1 to 100 nM,CC(C)Nc1ncc2cc(Oc3ccc(F)cc3F)c(=O)n(C[C@@H](C)O)c2n1
9,1 to 100 nM,COC[C@H](C)Nc1ncc2cc(Oc3ccc(F)cc3F)c(=O)n(C[C@H](C)O)c2n1
10,1 to 100 nM,CC(C)Nc1ncc2cc(Oc3ccc(F)cc3F)c(=O)n(C[C@H](C)O)c2n1
11,1 to 100 nM,C[C@H](O)Cn1c(=O)c(Oc2ccc(F)cc2F)cc2cnc(N[C@@H](C)CO)nc21
12,1 to 100 nM,CC(=O)Cn1c(=O)c(Oc2ccc(F)cc2F)cc2cnc(N[C@@H](C)CO)nc21
13,1 to 100 nM,C[C@@H](O)Cn1c(=O)c(Oc2ccc(F)cc2F)cc2cnc(N[C@@H](C)CO)nc21
14,1 to 100 nM,C[C@@H](O)Cn1c(=O)c(Oc2ccc(F)cc2F)cc2cnc(NCC(C)(C)C)nc21
15,1 to 100 nM,C[C@H](O)Cn1c(=O)c(Oc2ccc(F)cc2F)cc2cnc(NC3CC3)nc21
16,1 to 100 nM,C[C@H](O)CNc1ncc2cc(Oc3ccc(F)cc3F)c(=O)n(C[C@H](C)O)c2n1
17,1 to 100 nM,CC(C)CNc1ncc2cc(Oc3ccc(F)cc3F)c(=O)n(C[C@@H](C)O)c2n1
18,1 to 100 nM,C[C@@H](O)Cn1c(=O)c(Oc2ccc(F)cc2F)cc2cnc(NC3CCOCC3)nc21
19,1 to 100 nM,C[C@H](O)Cn1c(=O)c(Oc2ccc(F)cc2F)cc2cnc(NC(C)(C)CO)nc21
20,1 to 100 nM,CC[C@@H](CO)Nc1ncc2cc(Oc3ccc(F)cc3F)c(=O)n(C[C@H](C)O)c2n1
21,1 to 100 nM,COC[C@H](C)Nc1ncc2cc(Oc3ccc(F)cc3F)c(=O)n(C(CCO)CCO)c2n1
22,1 to 100 nM,C[C@H](O)Cn1c(=O)c(Oc2ccc(F)cc2F)cc2cnc(NC(CCO)CCO)nc21
23,1 to 100 nM,C[C@H](O)Cn1c(=O)c(Oc2ccc(F)cc2F)cc2cnc(NC[C@@H](C)O)nc21

row,IC50,SMILES
1,1 to 100 nM,C[C@H](O)CNc1ncc2cc(Oc3ccc(F)cc3F)c(=O)n(C[C@@H](C)O)c2n1
2,1 to 100 nM,C[C@H](O)Cn1c(=O)c(Oc2ccc(F)cc2F)cc2cnc(N[C@@H](CO)CCO)nc21
3,1 to 100 nM,C[C@H](O)Cn1c(=O)c(Oc2ccc(F)cc2F)cc2cnc(N[C@H](CO)[C@@H](C)O)nc21
4,1 to 100 nM,CC(=O)Cn1c(=O)c(Oc2ccc(F)cc2F)cc2cnc(N[C@H](C)CO)nc21
5,1 to 100 nM,C[C@H](O)Cn1c(=O)c(Oc2ccc(F)cc2F)cc2cnc(NCC(C)(C)C)nc21
6,1 to 100 nM,C[C@@H](O)Cn1c(=O)c(Oc2ccc(F)cc2F)cc2cnc(NCC3CC3)nc21
7,1 to 100 nM,CC[C@H](C)Nc1ncc2cc(Oc3ccc(F)cc3F)c(=O)n(C[C@@H](C)O)c2n1
8,1 to 100 nM,CC[C@H](CO)Nc1ncc2cc(Oc3ccc(F)cc3F)c(=O)n(C[C@@H](C)O)c2n1
9,1 to 100 nM,CC[C@H](C)Nc1ncc2cc(Oc3ccc(F)cc3F)c(=O)n(C[C@H](C)O)c2n1
10,1 to 100 nM,C[C@H](O)Cn1c(=O)c(Oc2ccc(F)cc2F)cc2cnc(N[C@H](CO)CCO)nc21
11,1 to 100 nM,CCNc1ncc2cc(Oc3ccc(F)cc3F)c(=O)n(C[C@@H](C)O)c2n1
12,1 to 100 nM,C[C@H](O)Cn1c(=O)c(Oc2ccc(F)cc2F)cc2cnc(NC(CO)CO)nc21
13,1 to 100 nM,COCCC(CCOC)Nc1ncc2cc(Oc3ccc(F)cc3F)c(=O)n(C[C@H](C)O)c2n1
14,1 to 100 nM,C[C@H](O)Cn1c(=O)c(Oc2ccc(F)cc2F)cc2cnc(N[C@H](C)CO)nc21
15,1 to 100 nM,O=c1c(Oc2ccc(F)cc2F)cc2cnc(NC3CCOCC3)nc2n1CCO
16,1 to 100 nM,C[C@@H](O)Cn1c(=O)c(Oc2ccc(F)cc2F)cc2cnc(NC3CC3)nc21
17,1 to 100 nM,CC[C@H](CO)Nc1ncc2cc(Oc3ccc(F)cc3F)c(=O)n(C[C@H](C)O)c2n1
18,1 to 100 nM,C[C@H](O)Cn1c(=O)c(Oc2ccc(F)cc2F)cc2cnc(NC3CCCCC3)nc21
19,1 to 100 nM,CC(O)Cn1c(=O)c(Oc2ccc(F)cc2F)cc2cnc(NC3CCOCC3)nc21 (stereo unspecified)
20,1 to 100 nM,C[C@H](Nc1ncc2cc(Oc3ccc(F)cc3F)c(=O)n(C[C@@H](C)O)c2n1)C(C)(C)O
21,1 to 100 nM,CC[C@@H](C)Nc1ncc2cc(Oc3ccc(F)cc3F)c(=O)n(C[C@H](C)O)c2n1
22,1 to 100 nM,C[C@@H](O)Cn1c(=O)c(Oc2ccc(F)cc2F)cc2cnc(NC(C)(C)CO)nc21
23,1 to 100 nM,C[C@H](CO)Nc1ncc2cc(Oc3ccc(F)cc3F)c(=O)n(C[C@@H](C)O)c2n1
